Assay results as given in ChEMBL document CHEMBL1201862, “PubChem BioAssay data set” (2004).
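In this assay, cells in 96-well plates receive the compound at five concentrations for 48 hours. Endpoints are linearly interpolated between the surrounding concentrations. GI50: concentration for 50% inhibition of growth.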 The source made the active and inactive calls. No stated cut-off is given here; in the data, active = GI50 up to about 1.1 µM and inactive = higher.

Assays:
Experiment in all cases: growth of human tumour cells (NCI), 48 h
KM12 = test system: KM12
HCT-116 = test system: HCT-116
SK-MEL-28 = test system: SK-MEL-28
HL-60 = test system: HL-60
MCF7 = test system: MCF7
NCI-H460 = test system: NCI-H460
SNB-19 = test system: SNB-19
T47D = test system: T47D
HOP-62 = test system: HOP-62
U-251 = test system: U-251
UO-31 = test system: UO-31
BT-549 = test system: BT-549
NCI-H522 = test system: NCI-H522
SR = test system: SR
ACHN = test system: ACHN
SK-MEL-5 = test system: SK-MEL-5
MDA-MB-435 = test system: MDA-MB-435
PC-3 = test system: PC-3
NCI-H226 = test system: NCI-H226

Measured: GI50

NS(=O)(=O)c1nnc(NC(=O)/C=C/C(=O)O)s1
inactive: KM12 > 100 µM | HCT-116 > 100 µM | SK-MEL-28 > 100 µM | HL-60 > 100 µM | MCF7 > 100 µM | NCI-H460 > 100 µM | SNB-19 > 100 µM | T47D > 100 µM | HOP-62 > 100 µM | U-251 > 100 µM | UO-31 > 100 µM | BT-549 > 100 µM | NCI-H522 > 100 µM | SR > 100 µM | ACHN > 100 µM | SK-MEL-5 > 100 µM | MDA-MB-435 > 100 µM

O=C(NCCO)Nc1c(C(F)(F)F)cc(-c2ccccc2)[nH]c1=O
inactive: PC-3 > 100 µM | KM12 > 100 µM | HCT-116 > 100 µM | SK-MEL-28 > 100 µM | HL-60 19.8 µM | MCF7 > 100 µM | NCI-H460 > 100 µM | NCI-H226 > 100 µM | SNB-19 > 100 µM | T47D > 100 µM | HOP-62 > 100 µM | U-251 > 100 µM | UO-31 > 100 µM | BT-549 > 100 µM | ACHN > 100 µM | SK-MEL-5 > 100 µM | MDA-MB-435 > 100 µM

O=[N+]([O-])c1cc2c(cc1/C=N/n1c(CO)nc3ccccc31)OCO2
inactive: PC-3 > 100 µM | KM12 > 100 µM | HCT-116 > 100 µM | SK-MEL-28 > 100 µM | HL-60 > 100 µM | MCF7 > 100 µM | NCI-H460 > 100 µM | NCI-H226 > 100 µM | SNB-19 > 100 µM | T47D > 100 µM | HOP-62 > 100 µM | U-251 > 100 µM | UO-31 > 100 µM | BT-549 > 100 µM | ACHN > 100 µM | SK-MEL-5 > 100 µM | MDA-MB-435 > 100 µM

C1CSCCCSCCSCCCSC1
inactive: PC-3 > 100 µM | HCT-116 > 100 µM | SK-MEL-28 > 100 µM | MCF7 > 100 µM | NCI-H460 > 100 µM | NCI-H226 > 100 µM | SNB-19 > 100 µM | T47D > 100 µM | HOP-62 > 100 µM | U-251 > 100 µM | UO-31 > 100 µM | BT-549 > 100 µM | NCI-H522 67.9 µM | ACHN > 100 µM | SK-MEL-5 > 100 µM | MDA-MB-435 > 100 µM

CC(=O)N1CC(=O)N2C(=O)/C(=C/c3ccc(Cl)cc3)N=C12
inactive: PC-3 > 100 µM | KM12 > 100 µM | HCT-116 > 100 µM | SK-MEL-28 > 100 µM | HL-60 27.7 µM | MCF7 97.9 µM | NCI-H460 > 100 µM | NCI-H226 > 100 µM | SNB-19 > 100 µM | T47D 53.1 µM | HOP-62 > 100 µM | U-251 > 100 µM | UO-31 > 100 µM | BT-549 > 100 µM | ACHN > 100 µM | SK-MEL-5 > 100 µM | MDA-MB-435 > 100 µM

Cc1ccc(/N=N/N(C)C(C)C(O)Cc2ccccc2)cc1 (stereo unspecified)
inactive: PC-3 20.3 µM | KM12 25.2 µM | HCT-116 49.3 µM | SK-MEL-28 65.8 µM | HL-60 33.8 µM | MCF7 47.9 µM | NCI-H460 36.5 µM | NCI-H226 > 100 µM | SNB-19 82.2 µM | T47D 33.7 µM | HOP-62 > 100 µM | U-251 88.5 µM | UO-31 18 µM | BT-549 41 µM | ACHN 78.5 µM | SK-MEL-5 39.6 µM | MDA-MB-435 35.9 µM
